Columns and labels:
LEFFA = assay: Postemergence foliar-applied weed control, direct-seeded rice (greenhouse); assay type: in vivo, Leptochloa fascicularis
How it was run: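 Greenhouse plants at first to fourth true leaf stage were sprayed postemergence at 187 L/ha with SC-formulated Compound A (acid equivalent basis), alone or with insecticides, in 1.25% v/v crop oil concentrate. Injury was scored visually 0–100% versus untreated plants after about 3 weeks; expected mixture effects were calculated by Colby's equation.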

ECHCG = assay: In-water applied weed control, transplanted paddy rice (greenhouse); assay type: in vivo, Echinochloa crus-galli; conditions: 8 g ae/ha alone
Description: Weed seeds or nutlets of the desired test plant species were planted in puddled soil (mud) prepared by mixing a shredded, non-sterilized mineral soil (50.5 percent silt, 25.5 percent clay, and 24 percent sand, with a pH of about 7.6 and an organic matter content of about 2.9 percent) and water at a 1:1 volumetric ratio. The prepared mud was dispensed in 365 mL aliquots into 16-ounce (oz.) non-perforated plastic pots with a surface area of 86.59 square centimeters (cm^2) leaving a headspace of 3 centimeters (cm) in each pot. Rice seeds were planted in Sun Gro MetroMix® 306 planting mixture, which typically has a pH of 6.0 to 6.8 and an organic matter content of about 30 percent, in plastic plug trays. Seedlings at the second or third leaf stage of growth were transplanted into 860 mL of mud contained in 32-oz. non-perforated plastic pots with a surface area of 86.59 cm^2 4 days prior to herbicide application. The paddy was created by filling the headspace of the pots with 2.5 to 3 cm of water. When required to ensure good germination and healthy plants, a fungicide treatment and/or other chemical or physical treatment was applied. The plants were grown for 4-22 days in a greenhouse with an approximate 14 h photoperiod which was maintained at about 29° C. during the day and about 26° C. during the night. Nutrients were added as Osmocote® (17:6:10, N:P:K+minor nutrients) at 2 grams (g) per 16-oz. pot and 4 g per 32-oz. pot. Water was added on a regular basis to maintain the paddy flood, and supplemental lighting was provided with overhead metal halide 1000-Watt lamps as necessary. The plants were employed for testing when they reached the first through fourth true leaf stage. […]
Treatment requirements for each compound or herbicidal component were calculated based upon the rates being tested, the concentration of active ingredient or acid equivalent in the formulation, an application volume of 2 mL per component per pot, and an application area of 86.59 cm^2 per pot.
For formulated compounds, a measured amount was placed in an individual 100 or 200 mL glass vial and was dissolved in a volume of 1.25% (v/v) AgriDex® crop oil concentrate to obtain application solutions. […]
The treated plants and control plants were placed in a greenhouse as described above and water was added as needed to maintain a paddy flood. After approximately 3 weeks the condition of the test plants as compared with that of the untreated plants was determined visually and scored on a scale of 0 to 100 percent where 0 corresponds to no injury or growth inhibition and 100 corresponds to complete kill. […]

SCPJU = assay: Postemergence foliar-applied weed control, direct-seeded rice (greenhouse); assay type: in vivo, Schoenoplectus juncoides; conditions: 4.38 g ae/ha alone
Text: Seeds or nutlets of the desired test plant species were planted in a soil matrix prepared by mixing a loam or sandy loam soil (e.g., 28.6 percent silt, 18.8 percent clay, and 52.6 percent sand, with a pH of about 5.8 and an organic matter content of about 1.8 percent) and calcareous grit in an 80 to 20 ratio. The soil matrix was contained in plastic pots with a volume of 1 quart and a surface area of 83.6 square centimeters (cm^2). When required to ensure good germination and healthy plants, a fungicide treatment and/or other chemical or physical treatment was applied. The plants were grown for 8-22 days in a greenhouse with an approximate 14 hour (h) photoperiod which was maintained at about 29° C. during the day and 26° C. during the night. Nutrients (Peters Excel® 15-5-15 5-Ca 2-Mg and iron chelate) were applied in the irrigation solution as needed and water was added on a regular basis. […]
Treatment requirements were calculated based upon the rates being tested, the concentration of active ingredient or acid equivalent in the formulation, and a 12 milliliter (mL) application volume at a rate of 187 liters per hectare (L/ha).
For treatments comprised of formulated compounds, measured amounts of compounds were placed individually in 25 mL glass vials and diluted in a volume of 1.25% volume per volume (v/v) Agri-Dex® crop oil concentrate to obtain 12× stock solutions. […]

COc1c(Cl)ccc(-c2nc(C(=O)OCc3ccccc3)c(Cl)c(N)c2F)c1F [Compound A Benzyl Ester]
Visual Weed Control (%) - 22 DAA LEFFA Obs (LEFFA; 8 g ae/ha alone): 23%
Visual Weed Control (%) - 22 DAA LEFFA Obs (LEFFA; 16 g ae/ha alone): 30%
Visual Weed Control (%) - 22 DAA LEFFA Obs (LEFFA; 22 DAA, 8 g ae/ha alone): 23%
Visual Weed Control (%) - 22 DAA LEFFA Obs (LEFFA; 22 DAA, 16 g ae/ha alone): 30%
Visual Weed Control (%) - 22 DAA LEFFA Obs (LEFFA; 22 DAA, 32 g ae/ha alone): 45%
Visual Weed Control (%) - 22 DAA LEFFA Obs (LEFFA; 32 g ae/ha alone): 45%
Visual Weed Control (%) - 21 DAA ECHCG Obs (ECHCG): 40%
Visual Weed Control (%) - 22 DAA SCPJU Obs (SCPJU): 70%

From patent US9237747B2, “Herbicidal compositions comprising 4-amino-3-chloro-5-fluoro-6-(4-chloro-2-fluoro-3-methoxyphenyl) pyridine-2-carboxylic acid or a derivative thereof and insecticides” (priority 2013, dated 2016)
